Molecular target: T1, NMT (Homo sapiens, UniProt P30419)
T1 construct: host or cells: Cos-1
T1 sequence (P30419 1-496): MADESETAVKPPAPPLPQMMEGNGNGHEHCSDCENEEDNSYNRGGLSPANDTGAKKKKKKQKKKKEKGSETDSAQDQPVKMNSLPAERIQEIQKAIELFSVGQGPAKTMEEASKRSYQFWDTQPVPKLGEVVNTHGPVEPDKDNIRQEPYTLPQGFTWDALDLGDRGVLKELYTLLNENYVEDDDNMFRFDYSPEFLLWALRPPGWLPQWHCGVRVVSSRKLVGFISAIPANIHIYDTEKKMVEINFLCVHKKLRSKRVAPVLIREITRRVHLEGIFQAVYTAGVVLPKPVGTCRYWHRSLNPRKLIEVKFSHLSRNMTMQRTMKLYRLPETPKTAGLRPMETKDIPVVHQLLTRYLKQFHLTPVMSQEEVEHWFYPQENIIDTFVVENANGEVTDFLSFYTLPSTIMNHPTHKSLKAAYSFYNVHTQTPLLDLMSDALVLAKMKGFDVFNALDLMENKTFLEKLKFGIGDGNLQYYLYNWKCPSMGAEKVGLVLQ
Experiment: Membrane targeting of V5-tagged SHOC2^S2G in Cos-1 cells treated with an NMT inhibitor (confocal laser scanning microscopy)
Format: cell-based, African green monkey
Procedure: FIG. 8. Myristoylation is required for membrane targeting of the SHOC2^S2G mutant. […] Confocal laser scanning microscopy was performed using anti-V5 monoclonal antibody, followed by Alexa Fluor-594 goat anti-mouse antibody (red), while actin cytoskeleton was detected by Alexa Fluor 488-phalloidin (green). Nuclei are visualized by DAPI staining (blue). Co-localization areas were detected in yellow. Images represent single optical sections representative of >50 transfected cells observed in each experiment. Bars indicate 20 μm.
N-myristoylation facilitates anchoring of proteins to intracellular membranes. To explore whether it conferred membrane targeting to mutant SHOC2, the subcellular localization of tagged SHOC2 proteins was analyzed in Cos-1 cells (FIG. 2b and FIG. 6). Confocal laser microscopy analysis documented that SHOC2^wt was uniformly distributed in the cytoplasm and nucleus in starved cells but was restricted to the nucleus following EGF stimulation, implying an unexpected role for this protein in signal transduction. […]
In silico analysis of protein N-myristoylation was performed using Myristoylator (http://www.expasy.org/tools/myristoylator/), TermiNator (http://www.isv.cnrs-gif.fr/terminator3/index.html) and NMT (http.//mendel.imp.ac.at/sat/myristate/index.html) software. […] N-myristoylation was evaluated by [^3H]myristic acid (30 μCi/ml) incorporation as described elsewhere^26. […]

**Q.** What does the source list for CCCCCCCCCCCCC(O)C(=O)O (centres unmarked) [2-hydroxymyristic acid]?
**A.** membrane targeting of V5-tagged SHOC2^S2G (Cos-1 cells treated with 200 μM (middle) and 300 μM (bottom), compared with untreated cells): progressively lost; SHOC2^S2G's membrane localization (Cos-1 cells, treatment at varying doses (FIG. 8)): reduced or abolished
